The results in this text go back to US8415369B2, “Spiroheterocyclic pyrrolidine dione derivatives useful as pesticides” (Syngenta Crop Protection LLC, priority 2007, dated 2013).

The test system of data set [1] is African bean aphid (Aphis craccivora). Kind of data set: Example B21: insecticide seed treatment of sugarbeet seeds, reduction of aphids. The format is in vivo. The conditions noted are these: infested after 14 days, counted 7 days after infestation. The protocol:
Insecticide Seed Treatment Sugarbeet seeds are treated with test compounds at various rates (mg a.i./seed). The seeds are sown into pots filled with soil. After placing the seeds on the soil surface they are further covered with soil. Before and during the bioassays, the plants are grown under optimal greenhouse conditions. After 14 days, the plants are infested with African bean aphid (Aphis craccivora) by placing one infested pea seedling containing approximately 150 aphids of a population of mixed developmental stages onto each plant. Seven days after infestation, the number of aphids is counted per plant. Each treatment group is replicated 10 times. Each replicate contains 1 plant. In this test, compounds listed in Tables A, B, C, D, E and F above show good activity.

Data set [2] deals with Tetranychus urticae (two-spotted spider mite). Kind of data set: Example B20: comparison with state of the art, Tetranychus urticae, feeding/residual contact activity, preventive. The data set is classed as in vivo. The conditions noted are these: for Death rate (%) after 8 days: bean leaf discs, mixed population, preventive. The text has this: Activity Against Tetranychus urticae (Two-Spotted Spider Mite)
(Mixed Population, Feeding/Residual Contact Activity, Preventive)
Bean leaf discs on agar in 24-well microtiter plates are sprayed with test solutions. […] 8 days later, discs are checked for egg mortality, larval mortality, and adult mortality.

In data set [3] the test system is Myzus persicae (green peach aphid). The data set is described as follows: Example B19: comparison with state of the art, Myzus persicae, systemic/feeding activity, curative. The data set is classed as in vivo. Conditions: for Death rate (%) after 6 days (systemic action): pea seedling roots in test solution, curative.
Data set [4] has as its system Diabrotica balteata (corn root worm). Kind of data set: Example B17: comparison with state of the art, Diabrotica balteata, larvicide, growth regulation. The data set is classed as in vivo. Conditions: for Inhibition of growth (%) after 5 dsys: artificial diet MTP, L2 larvae. The protocol: After drying, the MTP's are infested with larvae (L2)(6-10 per well). After an incubation period of 5 days, samples are checked for growth regulation.

The subject of data set [5] is Myzus persicae (green peach aphid). Kind of data set: Example B16: comparison with state of the art, Myzus persicae, feeding/residual contact activity, preventive. The data set is classed as in vivo. The conditions noted are these: for Death rate (%) after 6 days: sunflower leaf discs, mixed population, preventive.
Data set [6] concerns Thrips tabaci (onion thrips). The data set is described as follows: Example B18: comparison with state of the art, Thrips tabaci, feeding/residual contact activity, preventive. The format is in vivo. The conditions noted are these: for Death rate (%) after 6 days: sunflower leaf discs, mixed population, preventive.

In the case of `CON1CCC2(CC1)NC(=O)C(c1cc(C)ccc1C)=C2O` [Compound C1, 3-(2,5-dimethyl-phenyl)-4-hydroxy-8-methoxy-1,8-diaza-spiro[4.5]dec-3-en-2-one], the “Efficacy, % (reduction of aphids compared to untreated control plants)” value in data set [1] (0.03 mg a.i./seed) came out at 65%; in data set [1] (0.1 mg a.i./seed) it was 96%; in data set [1] (0.3 mg a.i./seed) it was 99%; in data set [1] (0.6 mg a.i./seed) it was 99%.
`CO[C@H]1CC[C@]2(CC1)NC(=O)C(c1cc(C)ccc1C)=C2OC(=O)C(C)(C)C` [Compound I-1-b-20, reference compound]: the figures for the “Death rate (%) after 8 days” value in data set [2] (12.5 ppm), in data set [2] (50 ppm) and in data set [2] (200 ppm) were 0%, 0% and 50%, respectively. Besides, the “Death rate (%) after 6 days (systemic action)” value in data set [3] (200 ppm) was found to be 0%.
In the case of `COC1CCC2(CC1)NC(=O)C(c1cc(-c3ccc(Cl)cc3)ccc1C)=C2O` (centres unmarked) [Compound I-1-a-16], the “Inhibition of growth (%) after 5 dsys” value in data set [4] (50 ppm) and in data set [4] (200 ppm) was 0% in each case. Moreover, the “Death rate (%) after 6 days” value in data set [5] (12.5 ppm) is reported as 0%; in data set [5] (50 ppm), 50%.
`CON1CCC2(CC1)NC(=O)C(c1cc(-c3ccc(Cl)cc3)ccc1C)=C2O` [Compound C6]: the “Inhibition of growth (%) after 5 dsys” value stood at 50% in data set [4] (50 ppm) and 75% in data set [4] (200 ppm). Moreover, the “insecticidal action compared with the compound from the state of the art” value was “substantially better insecticidal action” in data set [4] (vs compound 1-1-a-16 of WO1999/48869, Table B17) and “substantially better insecticidal action” in data set [5] (vs compound 1-1-a-16 of WO1999/48869, Table B16). Further, the results for the “Death rate (%) after 6 days” value in data set [5] (12.5 ppm) and in data set [5] (50 ppm) were 25% and 90%, respectively.
As to `C=CCOC(=O)OC1=C(c2cc(C)ccc2C)C(=O)NC12CCN(OC)CC2` [Compound A5], the “Efficacy, % (reduction of aphids compared to untreated control plants)” value in data set [1] (0.03 mg a.i./seed) is reported as 37%; in data set [1] (0.1 mg a.i./seed), 97%; in data set [1] (0.3 mg a.i./seed), 99%; in data set [1] (0.6 mg a.i./seed), 100%.
`CO[C@H]1CC[C@]2(CC1)NC(=O)C(c1c(C)cc(C)cc1C)=C2O` [Ia-32, reference compound]: the “Death rate (%) after 6 days” value in data set [6] (12.5 ppm), in data set [6] (50 ppm) and in data set [6] (200 ppm) was 25% in each case.
Take `CON1CCC2(CC1)NC(=O)C(c1cc(C)ccc1C)=C2OC(=O)C(C)(C)C` [Compound A9]: the “Death rate (%) after 8 days” value in data set [2] (12.5 ppm) was found to be 50%; in data set [2] (50 ppm), 80%; in data set [2] (200 ppm) it was 80%. In data set [2] (low application rates (50 and 12.5 ppm), vs compound I-1-b-20 of WO1998/05638), the “insecticidal action compared with the compound of the state of the art at low application rates” value was “far superior”. Further, the “insecticidal action compared with the compound from the state of the art” value was “substantially better insecticidal action” in data set [2] (vs compound I-1-b-20 of WO1998/05638, Table B20) and “substantially better insecticidal action” in data set [3] (vs compound I-1-b-20 of WO1998/05638, Table B19). The “Death rate (%) after 6 days (systemic action)” value in data set [3] (50 ppm) is 50%; in data set [3] (200 ppm), 80%.
Take `CON1CCC2(CC1)NC(=O)C(c1c(C)cc(C)cc1C)=C2O` [Compound C2]: the entries for the “Death rate (%) after 6 days” value in data set [6] (12.5 ppm), in data set [6] (50 ppm) and in data set [6] (200 ppm) were 90%, 100% and 100%, respectively. In addition, the “insecticidal action compared with the compound from the state of the art” value in data set [6] (vs compound Ia-32 of EP596298, Table B18) was “substantially better insecticidal action”.
In the case of `CON1CCC2(CC1)NC(=O)C(c1cc(Br)c(F)cc1C)=C2O` [Compound C19, 3-(5-Bromo-4-fluoro-2-methyl-phenyl)-4-hydroxy-8-methoxy-1,8-diaza-spiro[4.5]dec-3-en-2-one], the melting point lay in the range of 229 to 230 °C.

In general, melting point refers to the temperature of the solid-liquid transition.
